Data published in PubChem BioAssay (NCI).
Values joined by “and” are separate entries in the source; they are usually repeats but may differ in a detail not shown here. Equal values may be shown once.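 Interpolation was linear, between the two tested concentrations surrounding the appropriate level; five concentrations were tested over 48 hours in 96-well plates. GI50 marks 50% less growth. TGI is the concentration that stops growth completely.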

Key:
Assay in all cases: growth of human tumour cells (NCI), 48 h
[1] = tested on: SK-OV-3 ovarian
[2] = tested on: HOP-62 NSCLC
[3] = tested on: K-562 leukemia
[4] = tested on: A498 renal
[5] = tested on: MALME-3M melanoma
[6] = tested on: HCT-15 colon
[7] = tested on: DU-145 prostate
[8] = tested on: U251 CNS
[9] = tested on: MDA-MB-231 breast
[10] = tested on: UACC-257 melanoma

Row | Structure (SMILES) | TGI [1] | TGI [2] | TGI [3] | TGI [4] | TGI [5] | TGI [6] | TGI [7] [µM] | TGI [8] | TGI [9] | TGI [10] | GI50 [1] | GI50 [2] | GI50 [3] | GI50 [4] | GI50 [5] | GI50 [6] | GI50 [7] | GI50 [8] | GI50 [9] | GI50 [10]
1 | Nc1ccc(C(=O)N/C(=C\c2cccc([N+](=O)[O-])c2)c2nc3[nH]c(=S)[nH]c(=O)c3[nH]2)cc1 | 56.2 µM | 45.6 µM | > 100 µM | > 100 µM | > 100 µM | > 100 µM | > 100 | > 85.6 µM | > 94.5 µM | > 100 µM | – | – | – | – | – | – | – | – | – | –
2 | Cc1cccc2nc3ccccc3c(Nc3ccc(NS(C)(=O)=O)cc3)c12 | 55.5 µM | 17 µM | 26.8 µM | 19.4 µM | 19.4 µM | 31.6 µM | 22.6 | 13.5 µM | 24.2 µM | 22.9 µM | 6.22 µM | 4.69 µM | 5.62 µM | 3.81 µM | 4.99 µM | 5.89 µM | 3.76 µM | 3.15 µM | 9.57 µM | 10.4 µM
3 | COc1ccc2c(c1OC)CO[C@@H]2[C@H]1c2c(cc3c(c2OC)OCO3)CCN1S(=O)(=O)c1cn(C)cn1 | > 100 µM | > 100 µM | > 100 µM | 9.75 µM | > 100 µM | > 100 µM | 12 | > 100 µM | > 100 µM | > 100 µM | 2.57 µM | 1.88 µM | 0.413 µM | 0.588 µM | 0.77 µM | 0.722 µM | 2.77 µM | 2.24 µM | 4.49 µM | 9.43 µM
4 | Cc1ccc(S(=O)(=O)SC(C)(C)C)cc1 | > 100 µM | > 100 µM | 54.4 µM | > 100 µM | > 62 µM | 53 µM | > 100 | > 100 µM | 47.6 µM | 50.3 µM | – | – | – | – | – | – | – | – | – | –
5 | CC(C)(C)c1ccc(Oc2ccc(N)cn2)cc1 | > 100 µM | > 100 µM | > 100 µM | > 100 µM | > 100 µM | > 100 µM | > 100 | > 100 µM | > 100 µM | > 100 µM | > 100 µM | > 100 µM | 30.1 µM | 11.7 µM | 39.7 µM | 43.9 µM | 38.2 µM | 49.2 µM | 31.7 µM | 37.8 µM
6 | C=C/C=C/[C@@H](O)CC(=C)C[C@H]1OC2[C@H](C)[C@@H](OC(=O)C[C@H]3C[C@H](OC(C)=O)C[C@@]4(C[C@@](C)(O)C[C@H](CC(=C)[C@@H](C)[C@H](OC(C)=O)[C@H](C)C(=O)C[C@@H]5C[C@H](OC)CC6(C[C@@H](O)C[C@H](/C=C\CCC[C@H]7O[C@](O)(C=C[C@H]7C)[C@H]2O)O6)O5)O4)O3)[C@@H]1O | – | > 25 µM | > 25 µM | 0.00544 µM | – | > 9.46 µM | – | > 25 µM | 0.00362 µM | > 25 µM | 0.000465 µM and 0.0025 µM | 0.000252 µM and 0.0025 µM | – | 0.000388 µM and 0.0025 µM | 0.0025 µM | 0.00619 µM and 0.0025 µM | 0.0012 µM and 0.0025 µM | – | 0.000409 µM and 0.0025 µM | 0.00248 µM
7 | CCN(CC)CCCNc1cc(OC)cc2nc3cc(Cl)ccc3nc12 | 14.6 µM | 8.44 µM | 11.6 µM | 2.7 µM | 3.35 µM | 35.4 µM | 12.4 | 3.68 µM | 11.7 µM | 3.31 µM | 3.6 µM | 2.47 µM | 1.54 µM | 1.27 µM | 1.68 µM | 4.12 µM | 2.53 µM | 1.22 µM | 2.71 µM | 1.83 µM
8 | CC1C(C)N(C(=O)CCl)c2ccccc2N1C(=O)CCl (stereo not given) | 3 µM | 3.52 µM | 2.37 µM | 3.14 µM | 1.32 µM | 1.28 µM | 1.8 | 2.14 µM | 3.6 µM | 3.16 µM | 1.58 µM | 1.62 µM | 0.282 µM | 1.59 µM | 0.365 µM | 0.304 µM | 0.472 µM | 0.755 µM | 1.18 µM | 0.723 µM
9 | CNC(=O)c1cc(Oc2ccc(NC(=O)Nc3ccc(Cl)c(C(F)(F)F)c3)c(F)c2)ccn1 | 12.3 µM and 8.49 µM | 14.5 µM and > 10 µM | 7.13 µM and > 10 µM | 7.25 µM and 5.73 µM | 5.87 µM and > 10 µM | > 32.9 µM and 9.96 µM | > 100 | 11.3 µM and > 10 µM | 4.44 µM and 4.92 µM | 6.03 µM and 5.1 µM | 3.2 µM and 2.43 µM | 2.83 µM and 2.33 µM | 1.21 µM and 1.81 µM | 2.75 µM and 1.82 µM | 0.76 µM and 1.95 µM | 3 µM and 2.35 µM | 3.46 µM and 3.96 µM | 2.79 µM and 2.46 µM | 1.22 µM and 1.26 µM | 1.97 µM and 1.35 µM
10 | COc1ccc2c(c1)c(-c1nc(-c3c[nH]c4ccncc34)cs1)cn2C | 3.37 µM | 3.45 µM | 2.47 µM | 3.09 µM | 3.28 µM | 2.58 µM | 3.25 | 3.3 µM | 2.95 µM | 3.09 µM | 1.88 µM | 1.82 µM | 0.716 µM | 1.65 µM | 1.74 µM | 1.25 µM | 1.75 µM | 1.87 µM | 1.45 µM | 1.68 µM
11 | O=C(/C=C\c1ccc([N+](=O)[O-])cc1)c1ccccc(=O)c1O | 17.2 µM | 15.5 µM | > 30.9 µM | 9.59 µM | 3.08 µM | 4.2 µM | 9.44 | > 100 µM | 17.1 µM | 7.85 µM | – | – | – | – | – | – | – | – | – | –
12 | CNC(=O)c1c(NC(=O)c2ccc(C(C)(C)C)cc2)sc2c1CCC(=O)C2 | 6.17 µM | 3.32 µM | > 100 µM | 3.62 µM | 1.59 µM | 1.27 µM | 3.68 | 1.45 µM | 1.13 µM | 3.49 µM | 1.4 µM | 0.835 µM | 0.0659 µM | 0.647 µM | 0.345 µM | 0.12 µM | 1.44 µM | 0.143 µM | 0.3 µM | 0.824 µM
13 | Cc1ccc(/C=N/Nc2nc(Nc3ccccc3)nc(-n3nc(C)cc3C)n2)cc1 | > 100 µM | 29.2 µM | 42.7 µM | 92.4 µM | 26.8 µM | 46.4 µM | > 100 | > 100 µM | > 100 µM | 39.5 µM | 11.8 µM | 5.27 µM | 3.71 µM | 7.13 µM | 4.21 µM | 2.63 µM | 5.45 µM | 4.88 µM | 6.44 µM | 9.04 µM
14 | COC(=O)c1ccc(CN2C(=O)C(Cl)=C(Nc3cccc(Cl)c3C)C2=O)cc1 | > 100 µM | > 100 µM | 21.1 µM | 15.2 µM | 9.82 µM | 78.9 µM | > 100 | > 100 µM | 47.3 µM | > 100 µM | > 100 µM | 14.2 µM | 4.32 µM | 2.54 µM | 2.03 µM | 28.4 µM | 29.1 µM | 32.4 µM | 6.15 µM | 45.6 µM
15 | COc1cccc(CC(C)=C(c2ccc(OCCN3CCCCC3)cc2)c2ccc(OCCN3CCCCC3)cc2)c1 | 4.23 µM | 4.21 µM | 0.802 µM | 3.72 µM | 3.81 µM | 2.99 µM | 4.26 | 3.7 µM | 4.02 µM | 4.33 µM | 2.2 µM | 2.08 µM | 0.315 µM | 1.75 µM | 1.84 µM | 0.992 µM | 2.11 µM | 1.81 µM | 1.92 µM | 2.14 µM
16 | C[C@]12CC[C@H]3[C@@H](CC=C4C[C@@H](N5CCCC5)CC[C@@]43C)[C@@H]1C/C(=C\c1cccc(OCCN3CCOCC3)c1)[C@@H]2O | 35.1 µM | 9.83 µM | > 100 µM | 15 µM | 6.11 µM | > 100 µM | > 100 | > 100 µM | 5.37 µM | 6.65 µM | 17.2 µM | 2.76 µM | 2.34 µM | 3.52 µM | 2.15 µM | 2.39 µM | 1.85 µM | 2.95 µM | 2.24 µM | 2.55 µM
17 | CC(N)(Cc1c[nH]c2cccc(F)c12)C(=O)O (stereo not given) | > 1000 µM | > 1000 µM | > 1000 µM | > 1000 µM | > 1000 µM | > 1000 µM | > 1000 | > 1000 µM | > 1000 µM | > 1000 µM | 992 µM | 645 µM | > 1000 µM | > 1000 µM | > 1000 µM | > 1000 µM | > 1000 µM | > 1000 µM | > 1000 µM | > 1000 µM
18 | O=C(Nc1cccc(O)c1)c1ccc(NC2=C(Cl)C(=O)N(Cc3ccc(Cl)cc3Cl)C2=O)cc1 | 14.7 µM | > 58.5 µM | 3.96 µM | 29.3 µM | 5.75 µM | 6.13 µM | 11.6 | 3.23 µM | 4.05 µM | 21.6 µM | 4.6 µM | 8.44 µM | 1.08 µM | 15 µM | 2.23 µM | 2.51 µM | 6.15 µM | 1.76 µM | 1.85 µM | 7.96 µM
19 | CC1(C)CNc2cc(NC(=O)c3cccnc3NCc3ccncc3)ccc21 | > 100 µM | > 100 µM | > 100 µM | > 79.7 µM | 84.9 µM | > 87.7 µM | > 100 | > 100 µM | > 100 µM | 98.2 µM | 26.5 µM | 50.9 µM | 19.9 µM | 12.5 µM | 15.9 µM | 22.2 µM | 23 µM | 39.1 µM | 29.2 µM | 28.8 µM
